By IC50 is commonly meant the concentration needed to halve the response being measured. Read a high IC50 as lower potency.

For 23 compounds, IC50 results are on record in US10919885B2, “Compounds and uses thereof” (Yumanity Therapeutics, Inc., priority 2018, dated 2021).

Sequence of human SCD1 (O00767 whole entry): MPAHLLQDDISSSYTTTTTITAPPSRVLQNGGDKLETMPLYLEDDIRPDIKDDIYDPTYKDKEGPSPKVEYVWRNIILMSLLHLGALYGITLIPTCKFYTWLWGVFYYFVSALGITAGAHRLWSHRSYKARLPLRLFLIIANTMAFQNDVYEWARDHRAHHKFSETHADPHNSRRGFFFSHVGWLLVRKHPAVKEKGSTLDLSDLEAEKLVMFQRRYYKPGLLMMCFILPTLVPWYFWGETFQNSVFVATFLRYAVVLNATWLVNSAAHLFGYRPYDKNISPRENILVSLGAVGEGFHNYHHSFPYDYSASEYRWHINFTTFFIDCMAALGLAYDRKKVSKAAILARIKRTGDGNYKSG

For this assay, the target named is human SCD1 (Homo sapiens (Human), UniProt O00767). Nature of the assay: Yeast growth assay, strain expressing human SCD1 as the sole desaturase (reduced growth as surrogate for SCD inhibition). The note with it: yeast with OLE1 deleted expressing human SCD1 from a plasmid; growth read as OD600 after 40 h at 30° C.; top drug concentration 33.3 μM. Format: cell-based. On the procedure:
Strains expressing SCD1 or SCD5 as the sole desaturase, the human SCD1 and SCD5 genes were used to evaluate inhibition of SCD1/SCD5 using reduced growth as a surrogate for SCD inhibition. These yeast strains express human SCD1 or SCD5 from a plasmid harbored in a strain in which the yeast OLE1 gene is deleted.
All compound profiling experiments were performed using the same basic protocol. Yeast were cultured using standard techniques in complete synthetic media lacking uracil and containing yeast nitrogen base supplemented with 2% (w/v) glucose (SD-Ura) Starter cultures were inoculated in 3 mL SD-Ura media containing 0.01% tween and 0.2 mM palmitoleic and oleic acid. Cultures were incubated overnight in a 30° C. shaker incubator (225 rpm). Saturated morning cultures were centrifuged, washed in SD-Ura media lacking TWEEN-20 and fatty acids, and then diluted 1:20 in fresh SD-Ura media also lacking TWEEN-20 and fatty acids.
Compound administration was performed in two separate steps. First, 15 μL of SD-Ura was dispensed into clear 384-well assay plates using a MULTIDROP™ Combi reagent dispenser. […] The cultures described above were centrifuged and washed with media lacking TWEEN-20 or oleic and palmitoleic acids.
After yeast delivery, assay plates were incubated under humidified conditions at 30° C. for 40 h. Yeast growth was monitored by reading the OD600 of each well using a microplate reader (Perkin Elmer EnVision™).
Turning to `O=C(c1cc(-c2ccc(Cl)cn2)on1)N1CC(c2ccccc2)C1` [Compound 241, (5-(5-chloropyridin-2-yl)isoxazol-3-yl)(3-phenylazetidin-1-yl)methanone], the IC50 amounted to 3.38 µM.

Regarding `O=C(Nc1cnn(Cc2ccc(F)cc2)c1)c1cc(-c2ccco2)on1` [Compound 18, N-[1-[(4-fluorophenyl)methyl]pyrazol-4-yl]-5-(2-furyl)isoxazole-3-carboxamide], the IC50 was above 45 µM.

`O=C(Nc1cnn(Cc2ccccc2)c1)c1cc(-c2ccccn2)on1` [Compound 8, N-(1-benzylpyrazol-4-yl)-5-(2-pyridyl)isoxazole-3-carboxamide] yielded a half-maximal inhibitory concentration (IC50) of 0.7 µM.

`O=C(Nc1cnn(Cc2cccc(Cl)c2)c1)c1cc(-c2ccco2)on1` [Compound 22, N-[1-[(3-chlorophenyl)methyl]pyrazol-4-yl]-5-(2-furyl)isoxazole-3-carboxamide]: the IC50 was above 45 µM.

Consider `O=C(c1cc(-c2ccc3c(c2)OCO3)on1)N1CCCC1c1ccnc(Br)c1F` (centres unmarked) [Compound 459], for which the IC50 is above 45 µM.

Consider `O=C(c1cc(N2CCOCC2)on1)N1CCC[C@H]1c1ccccc1` [Compound 463], for which the IC50 was above 45 µM.

Compound `COc1ccc(-c2cc(C(=O)N3CCN(c4ccccc4)CC3)no2)cc1OC` [Compound 274] came in with an IC50 above 45 µM.

Take `CC1CN(c2ccccc2)CCN1C(=O)c1cc(-c2ccc3c(c2)OCO3)on1` (centres unmarked) [Compound 270, (5-(benzo[d][1,3]dioxol-5-yl)isoxazol-3-yl)(2-methyl-4-phenylpiperazin-1-yl)methanone]: the IC50 is above 45 µM.

As for `COc1ccccc1C1CCCN1C(=O)c1cc(-c2ccc3c(c2)OCO3)on1` (centres unmarked) [Compound 364], the IC50 was above 45 µM.

`O=C(c1cc(-c2ccccn2)on1)N1CCC[C@H]1c1ccccc1` [Compound 408] gave an IC50 above 45 µM.

On to `CC(C)c1cc(C(=O)N2CC(Cc3ccccc3)C2)no1` [Compound 251], for which the IC50 was above 45 µM.

Compound `COC1CCN(c2cc(C(=O)N3CC(c4ccccc4)C3)no2)CC1` [Compound 249] displayed a half-inhibitory concentration (IC50) above 45 µM.

Turning to `COCc1ncc(-c2cc(C(=O)Nc3cnn(Cc4ccccc4)c3)no2)s1` [Compound 140, N-(1-benzyl-1H-pyrazol-4-yl)-5-(2-(methoxymethyl)thiazol-5-yl)isoxazole-3-carboxamide], the IC50 was found to be 5.12 µM.

The compound `O=C(Nc1cnn(Cc2ccccc2)c1)c1cc(N2CCNCC2)on1` [Compound 190] displayed an IC50 above 45 µM.

`Cc1cnccc1-c1cc(C(=O)Nc2cnn(Cc3ccccc3)c2)no1` [Compound 201, N-(1-benzyl-1H-pyrazol-4-yl)-5-(3-methylpyridin-4-yl)isoxazole-3-carboxamide] displayed an IC50 above 45 µM.

As to `O=C(c1cc(-c2ccc3c(c2)OCO3)on1)N1CCC[C@@H]1C(F)(F)F` [Compound 372], the IC50 was above 45 µM.

Turning to `N#Cc1ccc(-c2cc(C(=O)N3CCC(c4ccccc4)CC3)no2)c(F)c1` [Compound 325, 3-fluoro-4-(3-(4-phenylpiperidine-1-carbonyl)isoxazol-5-yl)benzonitrile], the IC50 came out at 0.16 µM.

Consider `Cc1nn(C)c2cc(-c3cc(C(=O)N4COCC4c4ccccc4)no3)ccc12` (centres unmarked) [Compound 419], for which the IC50 was above 45 µM.

`O=C(Nc1cnn(Cc2cccc(F)c2)c1)c1noc2c1CCCC2` [Compound 193, N-{1-[(3-fluorophenyl)methyl]-1H-pyrazol-4-yl}-4,5,6,7-tetrahydro-1,2-benzoxazole-3-carboxamide] showed an IC50 of 0.01 µM.

Take `O=C(c1cc(-c2ccc3c(c2)OCO3)on1)N1CCCC1c1cccc(Br)c1` (centres unmarked) [Compound 388]: the IC50 is above 45 µM.

As for `COc1ccc(-c2cc(C(=O)N3CCC[C@H]3c3ccccc3)no2)cn1` [Compound 410], half-maximal inhibition (IC50) required 27.1 µM.

Compound `O=C(Nc1cnn(Cc2cccc(F)c2)c1)c1cc(Cl)on1` [Compound 105, 5-chloro-N-(1-(3-fluorobenzyl)-1H-pyrazol-4-yl)isoxazole-3-carboxamide] yielded an IC50 of 3.9 µM.

`O=C(c1cc(-c2ccc3c(c2)OCO3)on1)N1CCCC1c1ccncc1F` (centres unmarked) [Compound 460] displayed an IC50 above 45 µM.
